B1: catalase: antioxidant scavenging enzyme (protein, UniProt P04040 2-527, looked up)
Catalase: ADSRDPASDQMQHWKEQRAAQKADVLTTGAGNPVGDKLNVITVGPRGPLLVQDVVFTDEMAHFDRERIPERVVHAKGAGAFGYFEVTHDITKYSKAKVFEHIGKKTPIAVRFSTVAGESGSADTVRDPRGFAVKFYTEDGNWDLVGNNTPIFFIRDPILFPSFIHSQKRNPQTHLKDPDMVWDFWSLRPESLHQVSFLFSDRGIPDGHRHMNGYGSHTFKLVNANGEAVYCKFHYKTDQGIKNLSVEDAARLSQEDPDYGIRDLFNAIATGKYPSWTFYIQVMTFNQAETFPFNPFDLTKVWPHKDYPLIPVGKLVLNRNPVNYFAEVEQIAFDPSNMPPGIEASPDKMLQGRLFAYPDTHRHRLGPNYLHIPVNCPYRARVANYQRDGPMCMQDNQGGAPNYYPNSFGAPEQQPSALEHSIQYSGEVRRFNTANDDNVTQVRAFYVNVLNEEQRKRLCENIAGHLKDAQIFIQKKAVKNFTEVHPDYGSHIQALLDKYNAEKPKNAIHTFVQSGSHLAAREKANL

How the values were obtained:
[1] = tested on: hTSLP (human total soluble lens protein); test: Turbidity assay of human total soluble lens protein aggregation (absorbance at 400 nm); format: biochemical; details: for promotion of hTSLP/hTLP aggregation: hTSLP 1 mg/ml, 37° C. in the dark, peptide added; for effect on Aβ-potentiated hTSLP aggregation: added during incubation of hTSLP with hAβ1-42
Protocol: Human lenses with intact capsules were dissected from whole globes and homogenized in 1 mL HPLC water. The homogenate was centrifuged for at 100,000×g for 1 hour at 4° C. and the supernatant utilized as hTLSP. Protein concentration was determined using a commercially available kit (Pierce). The final hTSLP concentration was 1 mg/mL.
Test solutions of hTSLP (1 mg/ml) were plated to a final volume of 200 μL per well in 96 well microtiter plates with black sidewalls. Peptides and/or inhibitors were added to these solutions as indicated. Plates were incubated in the dark at 37° C. under humidified, CO2-balanced conditions. Turbidity (optical density) was assessed on a SpectraMax-Plus spectrophotometric plate reader set at a wavelength of 400 nm.
(§1) Aggregation experiments were carried out in 96 well black micro titer plates, in the 2dark. Depending on the experiment, a combination of 20 μL of 10× lenticular protein (final concentration 1 mg/mL), 20 μL of 10× chelator solution (final concentration 200 μM), 20 μL of Catalase and/or SOD (final concentrations of 500 U/mL and 100 U/mL respectively), 20 μL of Aβ (final concentration of 10 μM), 20 μL of metal solution (final concentration 1 μM), and an amount of PBS buffer to bring the total volume in the well to 200 μL. hTLP aggregation or bTLP aggregation was monitored by observing an increase in absorbance at 400 nm using a Spectramax UV-V is spectrophotometer.

[2] = tested on: hTSLP (human total soluble lens protein); test: Precipitation study of hTSLP incubated with hAβ1-42; format: biochemical; details: added during incubation of hTSLP with hAβ1-42
Protocol: Solutions of hTSLP (1 mg/ml) were incubated with or without hAβ1-42 (10 μM; 45 μg/ml) for 0 or 7 days. The resulting mixtures were then centrifuged at 15,000×g for 15 min and separated into pellet and supernatant fractions. The amount of pelleted protein was calculated by subtracting the supernatant protein concentration on Day 7 from the initial concentration on Day 0.

[3] = tested on: hTSLP (human total soluble lens protein); test: Thioflavin-T fluorescence (total β-sheet content of protein mixture); format: biochemical; details: added during incubation of hTSLP with hAβ1-42
Protocol: Fluorescence assays were conducted according to a standard protocols.
To determine whether the Aβ-induced aggregation of hTSLP was accompanied by conformational changes, the total β-sheet content of the protein mixture was measured by monitoring thioflavin-T fluorescence.

[4] = tested on: bTLP (bovine lens protein); test: Spontaneous bovine lens protein (bTLP) aggregation, absorbance at 400 nm; format: biochemical; details: 37° C. in the dark
Protocol: Filtered phosphate buffered saline solution (pH 7.4) was treated with chelex and used to make stock solutions (10×) for all reagents (chemical or biological). Protein stock solution at a concentration of 10 mg/mL was prepared from the supernatant as described above. Stock solutions of chelators (ethylenediaminetetraacetic acid (EDTA), diethylenetriaminepentaacetic acid (DTPA), or triethylenetetramine (TETA)) were made up at a concentration of 2 mM freshly prepared in PBS. Stock solutions of Catalase and SOD were freshly prepared in PBS to have an activity of 5000 U/mL and 1000 U/mL respectively. Aβ was prepared as a suspension (100 uM) in PBS or HPLC water by sonicating for three minutes such that only monomers or dimers remained. Metals were prepared as a 10 μM solution; Cu is prepared as Cu:glycine (1:6) from copper sulfate.
as §1
The influence of Reactive Oxygen Species ((ROS), Cu/Zn Superoxide Dismutase (SOD), Catalase (Cat)) on spontaneous bTLP aggregation was analyzed.

[5] = cited from earlier work

Row | Molecule | promotion of hTSLP/hTLP aggregation [1] | promotion of hTSLP/hTLP aggregation ([1]; listed as insulin) | effect on Aβ-potentiated hTSLP aggregation [1] | effect on protein precipitation [2] | effect on increased β-sheet content [3] | effect on bTLP aggregation [4] | absolute log Ks for Cu ([5]; Cu) | absolute log Ks for Fe ([5]; Fe) | absolute log Ks for Zn ([5]; Zn)
1 | synthetic rat Aβ1-40: synthetic rat β-amyloid peptide 1-40, relatively redox inert control peptide (DAEFGHDSGFEVRHQKLVFFAEDVGSNKGAIIGLMVGGVV; Amyloid-beta protein 40; UniProt P08592 672-711, looked up) | none |  |  |  |  |  |  |  | 
2 | recombinant human insulin: recombinant human insulin, negative control of approximately the same molecular weight as Aβ | none | no effect on hTLP aggregation |  |  |  |  |  |  | 
3 | O=C(O)CN(CCN(CC(=O)O)CC(=O)O)CCN(CC(=O)O)CC(=O)O [DTPA, diethylenetriaminepentaacetic acid] |  |  | abolished aggregation | blocked | blocked | reduces the extent of bTLP aggregation | 22.0 | 28.1 | 19.3
4 | superoxide dismutase: antioxidant scavenging enzyme |  |  | abolished aggregation | blocked | blocked | reduces the extent of bTLP aggregation |  |  | 
5 | O=C(O)CN(CCN(CC(=O)O)CC(=O)O)CC(=O)O [EDTA, ethylenediaminetetraacetic acid] |  |  |  |  |  | reduces the extent of bTLP aggregation |  |  | 
6 | B1 |  |  | abolished aggregation | blocked | blocked | reduces the extent of bTLP aggregation |  |  | 
